Measured values reported in patent US11795159B2 (priority 2021, dated 2023).
pIC50: −log10 of the molar value. Where two headings read alike, the source gives them in different places.

Key:
SARS-CoV-2 3CLpro = SARS-CoV-2 3CLpro (Severe acute respiratory syndrome coronavirus 2 (2019-nCoV) (SARS-CoV-2), UniProt P0DTD1); experiment: biochemical
SARS-CoV-2 = experiment: microbe, parasite or virus in culture; type: cell-based; conditions: Severe acute respiratory syndrome coronavirus 2, 72 h, read-out: ID50 (Antiviral Data)
[1] = read-out: IC50 (SARS-CoV-2 3CLpro Inhibition)
[2] = IC50 (SARS-CoV-2 3CLpro Inhibition)

## C=CC(=O)N1CCCC1C(=O)N(c1ccc(C(C)(C)C)cc1)C(C(=O)NC(C)(C)C)c1cccnc1 (stereo not drawn) [Compound 1]
SARS-CoV-2 3CLpro; [1]
  pIC50: < 4.00

## C=C(C)C(=O)N1CCCC1C(=O)N(c1ccc(C(C)(C)C)cc1)C(C(=O)NC(C)(C)C)c1cccnc1 (stereo not drawn) [Compound 2]
SARS-CoV-2
  pIC50: < 4.00
SARS-CoV-2 3CLpro; [2]
  pIC50: < 4.00

## C/C=C(\C)C(=O)N1CCCC1C(=O)N(c1ccc(C(C)(C)C)cc1)C(C(=O)NC(C)(C)C)c1cccnc1 (stereo not drawn) [Compound 3]
SARS-CoV-2
  pIC50: < 4.00
SARS-CoV-2 3CLpro; [2]
  pIC50: < 4.00

## C=C(C)C(=O)N1CCCC1C(=O)N(c1ccc(C(C)(C)C)cc1)C(C(=O)NC(C)(C)C)c1cccnc1 (stereo not drawn) [Compound 4]
SARS-CoV-2 3CLpro; [1]
  pIC50: < 4.00

## CCC(=O)N1CCCC1C(=O)N(c1ccc(C(C)(C)C)cc1)C(C(=O)NC(C)(C)C)c1cccnc1 (stereo not drawn) [Compound 5]
SARS-CoV-2
  pIC50: < 4.00
SARS-CoV-2 3CLpro; [2]
  pIC50: < 4.00

## C/C=C(\C)C(=O)N1CCC[C@@H]1C(=O)N(c1ccc(C(C)(C)C)cc1)C(C(=O)NC(C)(C)C)c1cccnc1 (stereo partly drawn) [Compound 6]
SARS-CoV-2 3CLpro; [2]
  pIC50: 4.00 to 5.00

## C/C=C/C(=O)N1CCCC1C(=O)N(c1ccc(C(C)(C)C)cc1)C(C(=O)NC(C)(C)C)c1cccnc1 (stereo not drawn) [Compound 7]
SARS-CoV-2
  pIC50: < 4.00
SARS-CoV-2 3CLpro; [2]
  pIC50: 5.00 to 6.00

## C/C=C/C(=O)N1CCCC1C(=O)N(c1ccc(C(C)(C)C)cc1)C(C(=O)NC(C)(C)C)c1cccnc1 (stereo not drawn) [Compound 8]
SARS-CoV-2 3CLpro; [2]
  pIC50: 4.00 to 5.00

## C=CC(=O)N1CCC(C(=O)N(c2ccc(C(C)(C)C)cc2)C(C(=O)NC(C)(C)C)c2cccnc2)C1 (stereo not drawn) [Compound 9]
SARS-CoV-2
  pIC50: < 4.00
SARS-CoV-2 3CLpro; [2]
  pIC50: 4.00 to 5.00

## C=CC(=O)N1CC[C@@H](C(=O)N(c2ccc(C(C)(C)C)cc2)C(C(=O)NC(C)(C)C)c2cccnc2)C1 (stereo partly drawn) [Compound 10]
SARS-CoV-2 3CLpro; [2]
  pIC50: 4.00 to 5.00

## C=CS(=O)(=O)N1CCCC1C(=O)N(c1ccc(C(C)(C)C)cc1)C(C(=O)NC(C)(C)C)c1cccnc1 (stereo not drawn) [Compound 11]
SARS-CoV-2
  pIC50: < 4.00
SARS-CoV-2 3CLpro; [2]
  pIC50: < 4.00

## C=CC(=O)N1CCCC1C(=O)N(c1ccc(C(C)(C)C)cc1)C(C(=O)NC(C)(C)C)c1cccnc1 (stereo not drawn) [Compound 12]
SARS-CoV-2
  pIC50: < 4.00
SARS-CoV-2 3CLpro; [2]
  pIC50: < 4.00

## C=CS(=O)(=O)N1CC[C@@H](C(=O)N(c2ccc(C(C)(C)C)cc2)C(C(=O)NC(C)(C)C)c2cccnc2)C1 (stereo partly drawn) [Compound 13]
SARS-CoV-2
  pIC50: < 4.00
SARS-CoV-2 3CLpro; [2]
  pIC50: < 4.00

## C=CS(=O)(=O)N1CC[C@@H](C(=O)N(c2ccc(C(C)(C)C)cc2)C(C(=O)NC(C)(C)C)c2cccnc2)C1 (stereo partly drawn) [Compound 14]
SARS-CoV-2 3CLpro; [1]
  pIC50: < 4.00

## C=CC(=O)N1CCC(F)(F)CC1C(=O)N(c1ccc(C(C)(C)C)cc1)C(C(=O)NC(C)(C)C)c1cccnc1 (stereo not drawn) [Compound 15]
SARS-CoV-2
  pIC50: < 4.00
SARS-CoV-2 3CLpro; [2]
  pIC50: < 4.00
